Usually IC50 stands for the concentration that gives 50% inhibition.

Format in all cases: biochemical
One assay deals with T1, caspase 8 (Homo sapiens, UniProt Q14790).
T1 construct: purchased Sigma-Aldrich (St. Louis, Mo.)
As to the kind of experiment: Enzyme inhibition assay, caspase 8 (fluorogenic Ac-IETD-AMC).

For a further assay, the target named is T2, caspase-3 (Homo sapiens, UniProt P42574).
T2 construct: purchased Sigma-Aldrich (St. Louis, Mo.)
T2 sequence (P42574 29-175 limits assumed): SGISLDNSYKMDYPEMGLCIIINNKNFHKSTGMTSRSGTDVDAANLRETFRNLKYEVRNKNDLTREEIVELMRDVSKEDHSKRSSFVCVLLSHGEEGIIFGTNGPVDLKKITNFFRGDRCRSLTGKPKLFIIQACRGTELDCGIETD
T2 sequence (P42574 176-277 limits assumed): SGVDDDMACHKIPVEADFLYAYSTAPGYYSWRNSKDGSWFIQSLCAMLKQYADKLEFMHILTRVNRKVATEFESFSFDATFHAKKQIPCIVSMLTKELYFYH
Put plainly: Enzyme inhibition assay, caspase 3 (fluorogenic Ac-DEVD-AMC).

A further assay has as its target T3, caspase 6 (Homo sapiens, UniProt P55212).
T3 construct: purchased Sigma-Aldrich (St. Louis, Mo.)
T3 sequence (P55212 24-179 limits assumed): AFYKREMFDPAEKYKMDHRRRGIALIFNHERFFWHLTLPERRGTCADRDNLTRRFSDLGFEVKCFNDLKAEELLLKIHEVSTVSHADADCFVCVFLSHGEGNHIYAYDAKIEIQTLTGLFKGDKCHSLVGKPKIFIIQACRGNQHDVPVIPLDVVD
T3 sequence (P55212 194-293 limits assumed): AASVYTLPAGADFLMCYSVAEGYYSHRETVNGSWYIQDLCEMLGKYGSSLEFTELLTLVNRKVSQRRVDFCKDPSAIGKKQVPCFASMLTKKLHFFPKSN
Put plainly: Enzyme inhibition assay, caspase 6 (fluorogenic Ac-VEID-AMC).

In a further assay the target is T4, caspase 7 (Homo sapiens, UniProt P55210).
T4 construct: purchased Sigma-Aldrich (St. Louis, Mo.)
T4 sequence (P55210 24-198 limits assumed): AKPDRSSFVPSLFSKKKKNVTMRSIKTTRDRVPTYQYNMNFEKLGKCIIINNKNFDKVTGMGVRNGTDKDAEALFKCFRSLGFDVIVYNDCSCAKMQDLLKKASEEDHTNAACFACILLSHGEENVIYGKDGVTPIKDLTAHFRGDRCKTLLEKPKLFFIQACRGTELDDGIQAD
T4 sequence (P55210 207-303 limits assumed): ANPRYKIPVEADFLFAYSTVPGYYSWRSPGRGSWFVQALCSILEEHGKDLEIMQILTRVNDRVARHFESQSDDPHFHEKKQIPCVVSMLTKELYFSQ
Put plainly: Enzyme inhibition assay, caspase 7 (fluorogenic Ac-DEVD-AMC).

For another assay, the target named is T5, caspase 1 (Homo sapiens, UniProt P29466).
T5 construct: purchased BIOMOL Research Laboratories (Plymouth Meeting, Pa.)
T5 sequence (P29466 120-297 limits assumed): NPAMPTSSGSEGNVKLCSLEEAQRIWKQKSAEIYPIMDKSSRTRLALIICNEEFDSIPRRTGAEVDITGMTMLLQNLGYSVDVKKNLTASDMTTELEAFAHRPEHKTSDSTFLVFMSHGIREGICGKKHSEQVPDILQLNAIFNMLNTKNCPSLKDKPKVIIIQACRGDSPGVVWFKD
T5 sequence (P29466 317-404 limits assumed): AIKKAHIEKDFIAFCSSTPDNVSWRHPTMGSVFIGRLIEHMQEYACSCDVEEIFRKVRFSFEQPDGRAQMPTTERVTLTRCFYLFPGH
Put plainly: Enzyme inhibition assay, caspase 1 (fluorogenic Ac-YVAD-AMC).

[1] abbreviates: Table 6, read-out: IC50 (nM) caspase-6.
The mark [2] stands for this setting: Table 6, read-out: IC50 (nM) caspase-7.
Setting [3] is: Table 6, read-out: IC50 (nM) caspase-1.
[4] abbreviates: Table 2, read-out: IC50 (nM) Caspase 8.
Where [5] appears, read: Table 2, read-out: IC50 (nM) Caspase 3.
[6] abbreviates: Table 2, read-out: IC50 (nM) Caspase 6.
[7] abbreviates: Table 2, read-out: IC50 (nM) Caspase 7.
The mark [8] stands for this setting: Table 2, read-out: IC50 (nM) Caspase 1.
Where [9] appears, read: Table 7, read-out: IC50 (nM) Casp-8.

Read-outs that look alike come from different tables or passages of the source.

T1 sequence (Q14790 217-374 limits assumed): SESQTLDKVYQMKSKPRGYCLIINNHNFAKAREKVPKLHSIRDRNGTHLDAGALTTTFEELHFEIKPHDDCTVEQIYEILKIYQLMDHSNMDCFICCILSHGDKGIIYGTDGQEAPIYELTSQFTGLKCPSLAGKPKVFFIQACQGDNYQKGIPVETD
T1 sequence (Q14790 385-479 limits assumed): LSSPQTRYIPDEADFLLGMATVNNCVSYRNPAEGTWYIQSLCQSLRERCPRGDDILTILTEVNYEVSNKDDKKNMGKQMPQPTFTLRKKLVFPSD
Method for caspase 1: (§1) Enzyme Assays. Inhibition of recombinant human caspase-3 and other caspases by the isatin analogues was assessed using a fluorometric assay by measuring the accumulation of a fluorogenic product, 7-amino-4-methylcoumarin (7-AMC).
(§2) Enzyme Inhibition Assays. Recombinant human caspases (3, 6, 7, and 8) and their peptide-specific substrates (Ac-DEVDAMC, Ac-VEID-AMC, Ac-DEVD-AMC, and Ac-IETD-AMC, respectively) were purchased from Sigma-Aldrich (St. Louis, Mo.) with the exception of caspase 1 and its substrate (Ac-YVAD-AMC), which were obtained from BIOMOL Research Laboratories (Plymouth Meeting, Pa.). The enzymatic activity of caspases was determined by measuring the accumulation of the fluorogenic product 7-amino-4-methylcoumarin (AMC). All assays were prepared in 96-well format at a volume of 210 μL per well and consisted of 100 mM Na+ HEPES (pH 7.4), 10% sucrose, 100 mM NaCl, 0.1% CHAPS, 5 mM 2-mercaptoethanol, 2 mM EDTA, 10 μM Ac-YVAD-AMC (caspase 1); 20 mMNa^+ HEPES (pH 7.4), 10% sucrose, 100 mMNaCl, 0.1% CHAPS, 2 mM EDTA, 10 μM Ac-DEVD-AMC (caspase 3); 20 mM Na^+ HEPES (pH 7.4), 10% sucrose, 100 mM NaCl, 0.1% CHAPS, 2 mM EDTA, 10 μM Ac-VEID-AMC (caspase 6); 20 mM Na+ HEPES (pH 7.4), 100 mM NaCl, 10% sucrose, 0.1% CHAPS, 5 mM 2-mercaptoethanol, 2 mM EDTA, 10 μM Ac-DEVD-AMC (caspase 7); 20 mM Na+ HEPES (pH 7.4), 10% sucrose, 100 mM NaCl, 0.1% CHAPS, 2 mM EDTA, 10 μM Ac-IETD-AMC (caspase 8).
(§3) Recombinant caspases were first assayed to determine the optimal concentration for each experiment. Optimal concentrations were based in the linear range of the enzyme activation curves. Peptide inhibitors with known IC50 values were tested together with the compounds as a control for each caspase assay. […] Peptide and nonpeptide inhibitors were dissolved in DMSO, and a 2 serial dilution was performed prior to screening in order to obtain desired concentrations. 10 μL was added to each well containing 100 μL caspase solution and allowed to incubate on ice for 30 min. […] The final concentration of DMSO in all wells was 5% of the total volume. In caspase-1 and caspase-7 assays, 10 mM 2-mercaptoethanol was added to the substrate solution for full activation of the enzymes.
(§4) Compounds were tested in duplicate, and IC50 curves were calculated for all inhibitors assayed. Final IC50s were the average of three independent experiments.
Method for caspase 8: as §1, §2, §3, §4
Method for caspase-3: as §1, §2, §3, §4

Take `CN1C(=O)C(=O)c2cc(S(=O)(=O)N3CCCC3COc3cccnc3)ccc21` (stereo not drawn) [Compound 21a, 1-Methyl-5-(2-(pyridin-3-yl-oxymethyl)-pyrrolidine-1-sulfonyl)-1H-indole-2,3-dione]: the IC50 was greater than 50000 nM on caspase 8; 23.3 ± 3.1 nM against caspase-3 (IC50 (nM) caspase-3, Table 6); greater than 5000 nM on caspase 6 (setting [1]); 94.9 ± 21.6 nM on caspase 7 (setting [2]); greater than 10000 nM at caspase 1 (setting [3]).

`O=C1Nc2ccc(S(=O)(=O)N3CCCC3COc3cccnc3)cc2C1=O` (stereo not drawn) [Compound 20, 5-(2-(Pyridin-3-yl-oxymethyl)-pyrrolidine-1-sulfonyl)-1H-indole-2,3-dione]: the IC50 is greater than 50000 nM at caspase 8; 58.3 ± 7.6 nM on caspase-3 (Table 6, read-out: IC50 (nM) caspase-3); greater than 5000 nM at caspase 6 (setting [1]); 215 ± 49.5 nM on caspase 7 (setting [2]); greater than 5000 nM at caspase 1 (setting [3]).

Take `N#CC(C#N)=C1C(=O)N(Cc2ccc(OCCF)cc2)c2ccc(S(=O)(=O)N3CCC[C@H]3COc3cccnc3)cc21` [WC-II-103]: the IC50 at caspase 8 (setting [4]) is greater than 50000 nM; on caspase-3 (setting [5]), 7.5 ± 0.2 nM; on caspase 6 (setting [6]) it was 770 ± 119 nM; on caspase 7 (setting [7]) it was 26 ± 5.2 nM; on caspase 1 (setting [8]), 3500 nM.

Take `COc1ccc(CN2C(=O)C(=C(C#N)C#N)c3cc(S(=O)(=O)N4CC[C@H]4COc4cccnc4)ccc32)cc1` [WC-II-87]: the IC50 is greater than 50000 nM on caspase 8 (setting [4]); 6 ± 0.8 nM at caspase-3 (setting [5]); 450 ± 43 nM at caspase 6 (setting [6]); 50 ± 11.6 nM at caspase 7 (setting [7]); 3600 nM at caspase 1 (setting [8]).

Consider `O=C1C(=O)N(Cc2ccc(OCCF)cc2)c2ccc(S(=O)(=O)N3CC[C@H]3COc3cccnc3)cc21` [WC-II-101], for which the IC50 was greater than 50000 nM at caspase 8 (Table 1, read-out: IC50 (nM) Caspase 8); 3.6 ± 0.5 nM on caspase-3 (Table 1, read-out: IC50 (nM) Caspase 3); 8700 nM at caspase 6 (Table 1, read-out: IC50 (nM) Caspase 6); 17.6 ± 0.4 nM at caspase 7 (Table 1, read-out: IC50 (nM) Caspase 7); greater than 10000 nM at caspase 1 (Table 1, read-out: IC50 (nM) Caspase 1).

As to `N#CC(C#N)=C1C(=O)N(Cc2ccc(O)cc2)c2ccc(S(=O)(=O)N3CCCC3COc3cccnc3)cc21` (stereo not drawn) [Compound 30b, 2-{1-(4-Hydroxy-benzyl)-2-oxo-5-[2-(pyridine-3-yloxymethyl)-pyrrolidine-1-sulfonyl]-1,2-dihydro-indol-3-yl-idene}-malononitrile], the IC50 is greater than 50000 nM on caspase 8 (setting [4]); greater than 50000 nM at caspase 8 (setting [9]); greater than 50000 nM on caspase 8 (read-out: IC50 for caspase-8); 7.8 ± 1.9 nM against caspase-3 (IC50 (nM) Casp-3, Table 7); 7.8 ± 1.9 nM at caspase-3 (IC50 (nM) Caspase 3, Table 2); 7.8 nM on caspase-3 (IC50 for caspase-3). The IC50 was 650 ± 22 nM at caspase 6; 850 ± 21 nM at caspase 6 (setting [6]); 515 to 770 nM on caspase 6 (read-out: IC50 for caspase-6); 28.3 ± 5.4 nM on caspase 7 (IC50 (nM) Casp-7, Table 7); 28.3 ± 5.4 nM against caspase 7 (IC50 (nM) Caspase 7, Table 2); 28.6 nM against caspase 7 (IC50 for caspase-7). Moreover, the IC50 on caspase 1 is 2720 nM; on caspase 1 (IC50 (nM) Casp-1, Table 7), 2720 ± 580 nM; on caspase 1 (read-out: IC50 for caspase-1), 2700 to 3200 nM.

Turning to `N#CC(C#N)=C1C(=O)N(Cc2ccccc2)c2ccc(S(=O)(=O)N3CCCC3COc3cccnc3)cc21` (stereo not drawn) [Compound 30a, 2-{1-Benzyl-2-oxo-5-[2-(pyridine-3-yloxymethyl)-pyrrolidine-1-sulfonyl]-1,2-dihydro-indol-3-yl-idene}-malononitrile], the IC50 was greater than 50000 nM at caspase 8 (setting [4]); greater than 50000 nM on caspase 8 (setting [9]); greater than 50000 nM at caspase 8 (read-out: IC50 for caspase-8); 7.6 ± 1.1 nM against caspase-3 (IC50 (nM) Casp-3, Table 7); 7.6 ± 1.1 nM against caspase-3 (IC50 (nM) Caspase 3, Table 2); 7.6 nM at caspase-3 (IC50 for caspase-3). In addition, the IC50 against caspase 6 was 823 ± 86 nM; on caspase 6 (read-out: IC50 for caspase-6), 515 to 770 nM; against caspase 7 (IC50 (nM) Casp-7, Table 7), 32.8 ± 4.9 nM; against caspase 7 (IC50 (nM) Caspase 7, Table 2) it was 32.8 ± 4.9 nM; against caspase 7 (IC50 for caspase-7), 32.8 nM; against caspase 1 it was 3250 nM. For the same compound, the IC50 is 3250 ± 450 nM against caspase 1 (IC50 (nM) Casp-1, Table 7) and 2700 to 3200 nM on caspase 1 (read-out: IC50 for caspase-1).
